Legend:
β-glucuronidase = conditions: 10 μL of 2.81 μg/mL substrate, pH 5.0, 37° C., 1 hour, n=3
Experimental: In this regard, as a control, curcumin monoglucuronide was used for the examination.
In addition, as the curcumin diglucuronide, commercially available curcumin diglucuronide (manufactured by SynInnova Laboratories Inc.) was used.
Next, into the resultant mixture, 0.5 mL of chloroform was added, and the mixture was stirred for 1 minute with a vortex mixer, and then the stirred mixture was treated for 15 minutes by using an ultrasonic generator, and the treated mixture was fractionated into a chloroform layer and a water layer by centrifugation (10,000×g, for 5 minutes, at room temperature). Further, this fractionation process was repeated twice. After that, the chloroform layer was collected, and dried and solidified by distilling off the solvent with a vacuum centrifugal concentrator, and to the dried and solidified matter, 100 μL of 50% (v/v) methanol was added, and then the resultant mixture was centrifuged (10,000×g, for 5 minutes, at room temperature) to collect a supernatant liquid, and the collected supernatant liquid was taken as an enzyme-treated sample.
In 2 μL of the enzyme-treated sample prepared in the above (2), free curcumin was measured by the method described in “b.

A549 = conditions: A549, in vitro; cited from earlier work
Jurkat cells = conditions: in vitro; cited from earlier work
[1] = test system: colorectal cancer cells derived from adult human colon HCT116; experiment: Anti-tumor effect by intravenous administration of curcumin conjugates (tumor size, HCT116 transplanted mice); format: in vivo, BALB/cAnNcr j-nu/nu (homo) mice; conditions: HCT116 mouse
Text: 1×10^7 or 4×10^6 colorectal cancer cells derived from adult human […] colon HCT116 (ATCC No. CCL-247) were transplanted subcutaneously into the flank of each of the test animals by using a 27 G injection needle.
In this regard, in the control group, mice to which water for injection excluding curcumin monoglucuronide had been administered intravenously were used.
For the tumor size, after each lapse of 0, 4, 7, 11 and 14 days from the start of administration or after each lapse of 0, 4, 7, 11, 14, 18 and 21 days from the start of administration, the length, width and height of the tumor were measured by using a vernier caliper, and the tumor size was calculated by the following equation. Tumor size (mm^3)=length×width×height×0.5 (5) Concentration of Curcumin Conjugates and Free Curcumin in Tumor Tissue

[2] = test system: human hepatocellular carcinoma cell lines (HepG2 cells); conditions: compared to free curcumin; cited from earlier work
in vivo = conditions: mouse
Experimental: Intravenous administration of a single dose of curcumin monoglucuronide was performed to each of the mice at each dose of 125, 250, 500 and 1000 mg/kg, and the toxicity thereof was evaluated. In this regard, the number of mice in each group was set to be n=5.
As the test animals, 6-week old Slc:ICR mice (male, with a body weight of 27 to 31 g, Japan SLC, Inc.), which had been purchased and acclimated to the environment for around 6 days, was used.
Observation of the state of each of the mice was performed by recording the type, extent, expression time, recovery time, and death (death detection) time of all of the toxic signs observed macroscopically.
Observation was performed at a time immediately after administration, at a time after each lapse of 30 minutes, 1, 2, 4 and 6 hours from the start of administration, and once a day from the day following the date of administration (up to after the lapse of 14 days from the start of administration).
The body weight was measured by using an electronic balance (UW4200S, Shimadzu Corporation) immediately before administration, and after each lapse of 1, 3, 7, 10 and 14 days from the administration.
Blood biochemical test was performed by the following method. That is, mice were fasted for 4 hours or more after the end of the mouse observation period (after the lapse of 14 days from the start of administration), the fasted mice were subjected to laparotomy under anesthesia by intraperitoneal administration of pentobarbital sodium, and the blood was collected from the abdominal aorta (the amount of the blood was 0.6 mL or more). Next, the collected blood was anti-coagulated with heparin sodium, and then the anti-coagulated blood was centrifuged (4° C., 3000 rpm, for 10 minutes) to obtain the plasma, and transaminase (AST and ALT) contained in the plasma was measured.
After the end of the observation period (after the lapse of 14 days from the start of administration), autopsy was performed as follows: blood was collected from each of the mice under anesthesia with pentobarbital sodium; and then the mice were sacrificed by exsanguination by cutting the abdominal aorta and the caudal vena; each of the sacrificed mice was dissected according to a pathological technique; and the cranium, the intrathoracic organs, the intraperitoneal organs, and the tissues thereof were observed macroscopically.

U266 = conditions: U266, in vitro; cited from earlier work
KBM-5 = conditions: KBM-5, in vitro; cited from earlier work
[3] = Serum biochemical test (liver and biliary diseases set, 21 items) in tumor-bearing mice; format: in vivo, BALB/cAnNcr j-nu/nu (homo) mice; conditions: 30 mg/kg i.v., 14 days from start of administration
[4] = test system: human hepatocellular carcinoma cell lines (HepG2 cells); conditions: cited from earlier work

For `COc1cc(/C=C/C(O)=C/C(=O)/C=C/c2ccc(O[C@@H]3O[C@H](C(=O)O)[C@@H](O)[C@H](O)[C@H]3O)c(OC)c2)ccc1O` [curcumin monoglucuronide], the “concentration of the curcumin contained in the enzyme-treated sample” value (β-glucuronidase) is given as 159.1 ± 6.1 ng/mL, the “cell growth inhibitory effect” value (A549) is given as “there is no such an effect” and the “cell growth inhibitory effect” value (Jurkat cells) is given as “there is no such an effect”. For the same compound, the tumor size ([1]; 30 mg/kg i.v., 0 day from start of administration) was 142.9±45.5 mm^3, the tumor size ([1]; 30 mg/kg i.v., 4 days) was 275.1±88.1 mm^3 and the tumor size ([1]; 30 mg/kg i.v., 11 days) was 489.4±147.8 mm^3. The tumor size ([1]; 30 mg/kg i.v., 14 days) was 581.2±197.4 mm^3, the tumor size ([1]; 90 mg/kg i.v., 0 day from start of administration) was 17.4±3.2 mm^3 and the tumor size ([1]; 90 mg/kg i.v., 4 days) was 23.6±8.4 mm^3. It also gave a tumor size ([1]; 90 mg/kg i.v., 7 days) of 42.6±16.6 mm^3, a tumor size ([1]; 90 mg/kg i.v., 11 days) of 77.5±28.9 mm^3 and a tumor size ([1]; 90 mg/kg i.v., 14 days) of 122.9±42.6 mm^3. For the same compound, the tumor size ([1]; 90 mg/kg i.v., 18 days) was 204.4±76.2 mm^3, the tumor size ([1]; 90 mg/kg i.v., 21 days) was 190.2±70.1 mm^3 and the “influence on the gene expression” value [2] was “the action was extremely low”. The “prone position and reduction of locomotor activity, number of mice” value (in vivo; male, Slc:ICR) was 5, the “reduction of locomotor activity, number of mice” value (in vivo; male, Slc:ICR) was 5 and the LD50 at 14 days (in vivo; male, Slc:ICR, iv) was 500 to 1000 mg/kg. The autopsy findings (in vivo) was “no abnormality was found”, the “state of mice by macroscopy” value (in vivo) was “no abnormality was found” and the “cell growth inhibitory effect” value (U266) was “there is no such an effect”. The “cell growth inhibitory effect” value (KBM-5) was “there is no such an effect”, the “serum biochemical test values (liver and biliary diseases set, 21 items)” value [3] was “no abnormality was found in the test values” and the “cell growth inhibitory effect” value [4] was “the effect was not found”.

From patent publication US11986530B2, “Drug composition for parenteral administration” (THERABIOPHARMA INC., priority 2016, dated 2024)
